Data taken from patent US7087634B2, “Cyclic AMP-specific phosphodiesterase inhibitors” (ICOS Corporation, priority 1999, dated 2006).
Read-outs that look alike come from different tables or passages of the source.

Key:
human recombinant PDE4 = target: T1, human recombinant PDE4 (Homo sapiens, UniProt Q07343); experiment: Inhibition of human recombinant PDE4 (charcoal separation PDE assay); format: biochemical
T1 construct: made in house; host or cells: Saccharomyces cerevisiae BJ2-54
Procedure: The compounds of structural formula (I) were tested for an ability to inhibit PDE4. […] The IC50 value for compounds of structural formula (I) were determined using human recombinant PDE4.
Phosphodiesterase activity of the preparations was determined as follows. […] In this assay, PDE activity converts [32P]cAMP or [32P]cGMP to the corresponding [32P]5′-AMP or [32P]5′-GMP in proportion to the amount of PDE activity present. The [32P]5′-AMP or [32P]5′-GMP then was quantitatively converted to free [32P]phosphate and unlabeled adenosine or guanosine by the action of snake venom 5′-nucleotidase. […] The assay was performed at 30° C. in a 100 μL reaction mixture containing (final concentrations) 40 mM Tris HCl (pH 8.0), 1 μM ZnSO4, 5 mM MgCl2, and 0.1 mg/mL bovine serum albumin (BSA). Alternatively, in assays assessing PDE1-specific activity, incubation mixtures further incorporated the use of 0.1 mM CaCl2 and 10 μg/mL calmodulin. PDE enzyme was present in quantities that yield <30% total hydrolysis of substrate (linear assay conditions). The assay was initiated by addition of substrate (1 mM [32P]cAMP or cGMP), and the mixture was incubated for 12 minutes. Seventy-five (75) μg of Crotalus atrox venom then was added, and the incubation was continued for 3 minutes (15 minutes total). The reaction was stopped by addition of 200 μL of activated charcoal (25 mg/mL suspension in 0.1 M NaH2PO4, pH 4). After centrifugation (750×g for 3 minutes) to sediment the charcoal, a sample of the supernatant was taken for radioactivity determination in a scintillation counter and the PDE activity was calculated.

[1] = tested on: TNFα release from human peripheral blood lymphocytes; experiment: Lipopolysaccharide-stimulated TNFα release from human peripheral blood lymphocytes; format: cell-based; details: Lymphocyte
Procedure: The compounds of structural formulae (I) and (II) were tested for an ability to reduce TNFα secretions in human peripheral blood lymphocytes. The ability of a compound to reduce TNFα secretion is related to the EC50 value for the compound (i.e., the effective concentration of the compound capable of inhibiting 50% of the total TNFα).
To assess the ability of a compound to reduce TNFα secretion in human peripheral blood lymphocytes (PBL), the following tests were performed.
Heparinized blood (approximately 30 mL) drawn from human volunteers was mixed 1:1 with Dulbecco's modified phosphate-buffered saline. This mixture was mixed 1:1 with HISTOPAQUE® and centrifuged at 1,500 rpm at room temperature without braking in the swinging bucket of a Beckman model TJ6 centrifuge. Erythrocytes were centrifuged to the bottom of the tubes, and serum remained at the surface of the tubes. A layer containing lymphocytes sedimented between the serum and HISTOPAQUE® layers, and was removed by aspiration to a fresh tube. The cells were quantified and adjusted to […] and a 100 μL aliquot is placed into the wells of a 96 well plate. Test compounds and RPMI media (Gibco/BRL Life Sciences) are added to each of the wells 15 minutes prior to addition of bacterial LPS ([…]). The mixture was allowed to incubate for 20 hours at 37° C. in a humidified chamber. The cells then were separated by centrifuging at 800 rpm for 5 minutes at room temperature. An aliquot of 180 μL of supernatant was transferred to a new plate for determination of TNFα concentration. TNFα protein in the cell supernatant fluids was measured using a commercially available enzyme-linked immunosorbent assay (ELISA) (CYTOSCREEN® Immunoassay Kit from Biosource International).
(§1) The cell-based assay provided the following results for various compounds of the present invention. The EC50. values (i.e., effective concentration of the compound capable of inhibiting 50% of the total TNFα) illustrate the ability of the present compounds to inhibit LPS-stimulated TNFα release from human PBL.
as §1, with “various pyrazole” for “various”, “EC50” for “EC50.”, “concentrations” for “concentration”, “peripheral blood lymphocytes.” for “PBL.”

recombinant human PDE4 = details: background, reported value; read-out: reported IC50 with respect to recombinant human PDE4; cited from earlier work
[2] = structure table, read-out: PDE4 IC50
[3] = table with PBL/TNFα, read-out: PDE4 IC50
[4] = LPS-stimulated TNFα release from human PBL, read-out: PBL/TNFα EC50
[5] = PDE4 IC50 (μM), structure table
[6] = PDE4 IC50 (μM), table with PBL/TNFα
[7] = Homo sapiens, read-out: PBL/TNFα EC50 (μM)

T1 sequence (Q07343 whole entry): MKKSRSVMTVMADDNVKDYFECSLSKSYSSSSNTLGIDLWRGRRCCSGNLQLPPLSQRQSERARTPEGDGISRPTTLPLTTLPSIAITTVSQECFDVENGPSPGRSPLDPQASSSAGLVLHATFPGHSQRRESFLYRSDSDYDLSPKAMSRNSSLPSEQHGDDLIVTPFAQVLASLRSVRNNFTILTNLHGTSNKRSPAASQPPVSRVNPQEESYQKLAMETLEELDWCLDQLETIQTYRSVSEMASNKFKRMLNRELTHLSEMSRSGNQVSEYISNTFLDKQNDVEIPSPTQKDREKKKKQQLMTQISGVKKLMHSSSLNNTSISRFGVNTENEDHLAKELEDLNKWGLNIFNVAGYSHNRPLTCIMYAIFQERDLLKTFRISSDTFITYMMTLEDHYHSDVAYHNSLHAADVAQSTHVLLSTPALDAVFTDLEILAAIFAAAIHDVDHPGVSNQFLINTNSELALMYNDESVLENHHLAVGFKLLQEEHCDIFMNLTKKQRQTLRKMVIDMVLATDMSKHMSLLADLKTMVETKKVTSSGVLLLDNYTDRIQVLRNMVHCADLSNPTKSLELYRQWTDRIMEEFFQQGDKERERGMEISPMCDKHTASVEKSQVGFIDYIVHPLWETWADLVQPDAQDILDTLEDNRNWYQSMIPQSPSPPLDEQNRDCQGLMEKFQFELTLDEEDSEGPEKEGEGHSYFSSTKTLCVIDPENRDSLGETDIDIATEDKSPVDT

Structure (SMILES)	IC50 (human recombinant PDE4; [2])	further results
CCOC(=O)c1c(C)nn(C2CCCCC2)c1C [Example 19, 1-cyclohexyl-3,5-dimethyl-1H-pyrazole-4-carboxylic acid ethyl ester]	0.053 µM	IC50 (human recombinant PDE4; [3]): 0.053 µM; EC50 [1, 4]: 0.52 µM
CCOC(=O)c1c(C)nn(-c2ncccc2[N+](=O)[O-])c1C [Example 10, 3,5-dimethyl-1-(3-nitropyridin-2-yl)-1H-pyrazole-4-carboxylic acid ethyl ester]	0.2 µM	IC50 (human recombinant PDE4; [3]): 0.2 µM; EC50 [1, 4]: 2 µM
C/C(=N\O)c1cnn(-c2cc(C(F)(F)F)cc(C)n2)c1C [Example 32, 1-[5-Methyl-1-(6-methyl-4-trifluoromethyl-pyridin-2-yl)-1H-pyrazol-4-yl]-ethanone oxime]	67.4 µM	–
CCOC(=O)c1cnn(-c2c(Cl)cc(Cl)cc2Cl)c1COC [Example 35, 5-Methoxymethyl-1-(2,4,6-trichlorophenyl)-1H-pyrazole-4-carboxylic acid ethyl ester]	131 µM	–
CCOC(=O)c1c(C)nn(-c2ccc([N+](=O)[O-])cn2)c1C [Example 17, 3,5-dimethyl-1-(5-nitropyridin-2-yl)-1H-pyrazole-4-carboxylic acid ethyl ester]	57.5 µM	–
Cc1nn(-c2ccccc2)c(C)c1C=O [Example 28, 3,5-Dimethyl-1-phenyl-1H-pyrazole-4-carboxaldehyde]	18 µM	–
CCOC(=O)c1c(C)nn(-c2ccc([N+](=O)[O-])cn2)c1C [Example 7, 3,5-dimethyl-1-(5-nitropyridin-2-yl)-1H-pyrazole-4-carboxylic acid ethyl ester]	–	IC50 (human recombinant PDE4; read-out: PDE4 IC50, structure table): 12.9 µM
CCOC(=O)c1c(C)nn(-c2ccccc2N)c1C [Example 6, 3,5-dimethyl-1-(2-aminophenyl)-1H-Pyrazole-4-carboxylic acid ethyl ester]	1.13 µM	–
COC(=O)c1cnn(-c2cc(C(F)(F)F)cc(C)n2)c1C(C)=O [Example 33, 5-Acetyl-1-(6-methyl-4-trifluoromethylpyridin-2-yl)-1H-pyrazole-4-carboxylic acid methyl ester]	88.2 µM	–
Cc1nn(-c2ccc(N)cc2)c(C)c1C(=O)O [Example 18, 1-(4-aminophenyl)-3,5-dimethyl-1H-pyrazole-4-carboxylic acid]	175 µM	–
Cc1nn(-c2ncccc2[N+](=O)[O-])c(C)c1C(=O)O [Example 16, 3,5-dimethyl-1-(3-nitropyridin-2-yl)-1H-pyrazole-4-carboxylic acid]	47.4 µM	–
Cc1nn(-c2ccccc2)c(C)c1C(=O)Nc1ccccc1 [Example 36, 3,5-Dimethyl-1-phenyl-1H-pyrazole-4-carboxylic acid phenylamide]	142 µM	–
CCOC(=O)c1cnn(-c2ncc(C(F)(F)F)cc2Cl)c1C [Example 31, 1-(3-Chloro-5-trifluoromethylpyridin-2-yl)-5-methyl-1H-pyrazole-4-carboxylic acid ethyl ester]	63 µM	–
CCOC(=O)c1cnn(-c2ccc([N+](=O)[O-])cc2)c1C(F)(F)F [Example 30, 1-(4-Nitrophenyl)-5-trifluoromethyl-1H-pyrazole-4-carboxylic acid ethyl ester]	45.4 µM	–
COC(=O)c1cnn(-c2ccccn2)c1C(C)=O [Example 37, 5-Acetyl-1-pyridin-2-yl-1H-pyrazole-4-carboxylic acid methyl ester]	181 µM	–
CCOC(=O)c1c(C)nn(-c2ccc(N=Cc3ccc(OC)cc3)cc2)c1C [Example 39]	–	IC50 (human recombinant PDE4; [5]): 0.69 µM; IC50 (human recombinant PDE4; [6]): 0.69 µM; EC50 [1, 4]: 1.3 µM

Structure (SMILES)	IC50 (human recombinant PDE4; [2])	further results
CCOC(=O)c1c(C)nn(-c2ccccc2)c1C [Example 3, 3,5-dimethyl-1-phenyl-1H-pyrazole-4-carboxylic acid ethyl ester]	0.31 µM	IC50 (human recombinant PDE4; [3]): 0.31 µM; EC50 [1, 7]: 1.8 µM
CCOC(=O)c1cnn(-c2ccc(N)cc2)c1C(F)(F)F [Example 27, 1-(4-aminophenyl)-5-trifluoromethyl-1H-pyrazole-4-carboxylic acid ethyl ester]	3.61 µM	–
CCOC(=O)c1c(C)nn(-c2ccc(NCc3ccccc3O)cc2)c1C [Example 40]	–	IC50 (human recombinant PDE4; [5]): 0.92 µM; IC50 (human recombinant PDE4; [6]): 0.92 µM; EC50 [1, 7]: 6.2 µM
COC(=O)c1cnn(-c2cc(C(F)(F)F)cc(C)n2)c1C(=O)C=CN(C)C [Example 29, 5-(3-Dimethylaminoacryloyl)-1-(6-methyl-4-trifluoromethylpyridin-2-yl)-1H-pyrazole-4-carboxylic acid methyl ester]	37 µM	–
CCOC(=O)c1c(C)nn(-c2ccc(N)cc2)c1C [Example 11, 3,5-dimethyl-1-(4-aminophenyl)-1H-pyrazole-4-carboxylic acid ethyl ester]	0.3 µM	IC50 (human recombinant PDE4; [3]): 0.3 µM; EC50 [1, 4]: 1 µM
COC(=O)N1CC(c2ccc(OC)c(OC3CCCC3)c2)C(C)(C(C)=O)C1 (centres unmarked)	–	IC50 (recombinant human PDE4): ~2 nM
CCOC(=O)c1c(C)nn(-c2cccc(N)c2)c1C [Example 9, 1-(3-aminophenyl)-3,5-dimethyl-1H-pyrazole-4-carboxylic acid ethyl ester]	1.03 µM	IC50 (human recombinant PDE4; [3]): 1 µM; EC50 [1, 7]: 1.9 µM
CCOC(=O)c1c(C)nn(-c2ncccc2N)c1C [Example 12, 1-(3-aminopyridin-2-yl)-3,5-dimethyl-1H-pyrazole-4-carboxylic acid ethyl ester]	0.94 µM	IC50 (human recombinant PDE4; [3]): 0.94 µM; EC50 [1, 7]: 2.6 µM
Cc1nn(-c2ccccc2)c(C)c1C(=O)Nc1ccncc1 [Example 34, 3,5-Dimethyl-1-phenyl-1H-pyrazole-4-carboxylic acid pyridin-4-ylamide]	97.9 µM	–
CCOC(=O)c1cn(-c2ccccn2)nc1C [Example 26, 3-methyl-1-pyridin-2-yl-1H-pyrazole-4-carboxylic acid ethyl ester]	3.59 µM	–
CCOC(=O)c1c(C)nn(-c2ccc(C)cc2)c1C [Example 4, 3,5-dimethyl-1-p-tolyl-1H-pyrazole-4-carboxylic acid ethyl ester]	3.94 µM	–
CCOC(=O)c1c(C)nn(-c2ccccc2[N+](=O)[O-])c1C [Example 5, 3,5-dimethyl-1-(2-nitrophenyl)-1H-pyrazole-4-carboxylic acid ethyl ester]	0.65 µM	–
Cc1ccc(OC(=O)c2c(C)nn(-c3ccccc3)c2C)cc1 [Example 15, 3,5-dimethyl-1-phenyl-1H-pyrazole-4-carboxylic acid p-tolyl ester]	36.5 µM	–
CCOC(=O)c1c(C)nn(-c2ccc(N=Cc3ccccc3O)cc2)c1C [Example 38]	–	IC50 (human recombinant PDE4; [5]): 0.4 µM; IC50 (human recombinant PDE4; [6]): 0.4 µM; EC50 [1, 7]: 1 µM
CCOC(=O)c1c(C)nn(-c2ccc(NS(=O)(=O)c3ccc(OC)cc3)cc2)c1C [Example 13, 1-[4-(4-methoxybenzenesulfonylamino)phenyl]-3,5-dimethyl-1H-pyrazole-4-carboxylic acid ethyl ester]	–	IC50 (human recombinant PDE4; [5]): 1.88 µM
CCOC(=O)c1c(C)nn(-c2ccc(NC(=O)C(C)(C)C)cc2)c1C [Example 14, 1-[4-(2,2-dimethylpropionylamino)phenyl]-3,5-dimethyl-1H-pyrazole-4-carboxylic acid ethyl ester]	6.39 µM	–
